Patent US20120052122A1, “Treatment Of Chronic Obstructive Pulmonary Disease With Phosphodiesterase-4 Inhibitor” (Nycomed GmbH, priority 2010, published 2012)
Values joined by “and” are separate entries in the source; they are usually repeats but may differ in a detail not shown here. Equal values may be shown once. Read-outs that look alike come from different tables or passages of the source.

Legend:
B6C3F1 mice = test: Two year carcinogenicity study in B6C3F1 mice; type: in vivo, mouse; details: gavage up to 12 mg/kg/day (males), 18 mg/kg/day (females), two years
Description: No other treatment-related neoplastic findings were observed. Overall, the tumor-free level in the animals was 4 mg/kg/day.

mouse = test: Labor and delivery in the mouse; type: in vivo
From the text: Roflumilast should not be used during labor and delivery.

[1] = test system: patients with COPD and chronic cough and sputum production
patients with COPD = test: Sputum cell counts in patients with COPD
[2] = Excretion into milk of lactating rats; type: in vivo, rat; details: roflumilast and/or its metabolites
From the text: Excretion of roflumilast and/or metabolites into human milk is probable. Roflumilast should not be used during breast-feeding.

animal models = test: Smoke-induced lung damage animal models; details: animal models in vivo
[3] = test system: endotoxin challenged healthy volunteers; test: Endotoxin challenge in healthy volunteers
[4] = test system: patients with COPD and chronic cough and sputum production; test: M2-125 study: 52-week placebo-controlled trial of oral roflumilast 500 μg once a day
[5] = Human spermatogenesis study; details: 500 mcg; 3-month treatment and 3-month off-treatment period
[6] = Phase I studies, single oral doses of 2,500 mcg and 5,000 mcg; type: in vivo, human; details: single oral doses of 2,500 mcg and one single dose of 5,000 mcg
[7] = test system: bronchial ciliary activity; test: Bronchial ciliary activity in vitro
clinical = details: human, in vivo
[8] = human, in vivo
experimental animals = test: Infiltration of leukocytes into the lungs of experimental animals
Plasma protein binding = type: in vitro ADME
[9] = Non-clinical safety pharmacology and toxicity studies
From the text: Non-clinical data reveal no special hazard for humans based on conventional studies of safety pharmacology and repeated dose toxicity. Furthermore, there is no evidence of immunotoxic, skin sensitizing or phototoxic potential.

[10] = test system: unselected patients with severe COPD; details: Reference 14; cited from earlier work
[11] = in vivo
[12] = test system: patients with COPD and chronic cough and sputum production; details: in vivo

O=C(Nc1c(Cl)cncc1Cl)c1ccc(OC(F)F)c(OCC2CC2)c1 [Roflumilast, N-(3,5-dichloropyridin-4-yl)-3-cyclopropylmethoxy-4-difluoromethoxy-benzamide]
Tumors (B6C3F1 mice): No compound-related tumors
Oral dose with signs of tocolytic activity resulting in delivery retardation and decreased postnatal survival (mouse): ≥ 2 mg/kg/day
Change in C-reactive protein from baseline to last postrandomisation visit ([1]; M2-124): 1.0; n = 691 mg/L
Median time to first exacerbation (moderate or severe) [IQR] ([1]; M2-124): 85.0 (29.5-185.5) days
Median time to second exacerbation (moderate or severe) [IQR] ([1]; M2-124): 172.0 days
Number of patients needed to treat to prevent one moderate or severe exacerbation per year ([1]; M2-124): 5.3 and 5.29
Time to mortality (mean, SD) ([1]; M2-124): 213.8 days
Exacerbations moderate or severe, mean rate [95% CI] ([1]; M2-124, 52 weeks): 1.08 (0.96-1.21); per patient, per year
Exacerbations moderate, mean rate [95% CI] ([1]; M2-124, 52 weeks): 0.94 (0.83-1.06); per patient, per year
Exacerbations severe, mean rate [95% CI] ([1]; M2-124, 52 weeks): 0.11 (0.07-0.15); per patient, per year
Exacerbations treated with systemic corticosteroids, antibiotics, or both, mean rate [95% CI] ([1]; M2-124, 52 weeks): 1.10 (0.98-1.23); per patient, per year
Change in postbronchodillator FEV1/FVC ([1]; M2-124, 52 weeks, mean): 0.488%
Change in prebronchodillator FEV1/FVC ([1]; M2-124, 52 weeks, mean): 0.314%
Change in postbronchodillator FEF25-75 ([1]; M2-124, 52 weeks, mean (SE)): 22 (6); mL/s
Change in postbronchodillator FEV1 ([1]; M2-124, 52 weeks, mean (SE)): 57 (9); mL
Change in postbronchodillator FVC ([1]; M2-124, 52 weeks, mean (SE)): 76 (15); mL
Change in postbronchodillator PEF ([1]; M2-124, 52 weeks, mean (SE)): 8.08 (1.50); L/min
Change in prebronchodillator FEF25-75 ([1]; M2-124, 52 weeks, mean (SE)): 19 (5); mL/s
Change in prebronchodillator FEV1 ([1]; M2-124, 52 weeks, mean (SE)): 46 (8); mL
Change in prebronchodillator FVC ([1]; M2-124, 52 weeks, mean (SE)): 68 (15); mL
Change in prebronchodillator PEF ([1]; M2-124, 52 weeks, mean (SE)): 6.65 (1.45); L/min
Adverse event Influenza, difference ([1]; M2-124, Roflumilast vs Placebo): 1.13% (−0.70 to 2.95)
Change in C-reactive protein from baseline to last postrandomisation visit, difference ([1]; M2-124, Roflumilast vs Placebo): Difference 1.0 (0.8 mg/L
Change in postbronchodillator FEF25-75, difference ([1]; M2-124, Roflumilast vs Placebo): Difference 11 (−5 mL/s
Change in postbronchodillator FEV1, difference ([1]; M2-124, Roflumilast vs Placebo): Difference 49 (26 mL
Change in postbronchodillator FEV1/FVC, difference ([1]; M2-124, Roflumilast vs Placebo): Difference 0.202 (−0.343%
Change in postbronchodillator FVC, difference ([1]; M2-124, Roflumilast vs Placebo): Difference 101 (63 mL
Change in postbronchodillator PEF, difference ([1]; M2-124, Roflumilast vs Placebo): Difference 4.21 L/min
Change in prebronchodillator FEF25-75, difference ([1]; M2-124, Roflumilast vs Placebo): Difference 17 (3 to mL/s
Change in prebronchodillator FEV1, difference ([1]; M2-124, Roflumilast vs Placebo): Difference 39 (18 mL
Change in prebronchodillator FEV1/FVC, difference ([1]; M2-124, Roflumilast vs Placebo): Difference 0.312 (−0.262%
Change in prebronchodillator FVC, difference ([1]; M2-124, Roflumilast vs Placebo): Difference 89 (51 mL
EQ-5D total score, difference ([1]; M2-124, Roflumilast vs Placebo): Difference −0.0047
TDI focal score, difference ([1]; M2-124, Roflumilast vs Placebo): Difference 0.2
Change in prebronchodillator FVC, difference ([1]; M2-124, Roflumilast vs Placebo, listed as roflumilast): 89 mL
EQ-5D total score ([1]; M2-124, mean): 0.0049
TDI focal score ([1]; M2-124, mean (SE)): 0.7 (0.1);
Adverse event Influenza, patients ([1]; M2-124, n = 769): 27 (4%) number (%)
Adverse event Upper respiratory tract infection, patients ([1]; M2-124, n = 769): 16 (2%) number (%)
Adverse event Upper respiratory tract infection, difference ([1]; human, in vivo, 52 weeks): −0.70% (−2.38 to 0.98)
Sputum neutrophils (patients with COPD): reduced
Excretion into milk [2]: excreted into the milk
Smoke-induced destruction of lung parenchyma (animal models): reduced
Influx of neutrophils and eosinophils into the airways [3]: attenuated
Change in C-reactive protein from baseline to last postrandomisation visit [4]: 1.1; n = 680 mg/L
Median time to first exacerbation (moderate or severe) [IQR] [4]: 73.0 (26.0-195.0); days
Median time to second exacerbation (moderate or severe) [IQR] [4]: 188.0 (84.0-281.0) days
Number of patients needed to treat to prevent one moderate or severe exacerbation per year [4]: 3.6 and 3.64
Time to mortality (mean, SD) [4]: 201.0 days
Exacerbations moderate or severe, mean rate [95% CI] ([4]; 52 weeks): 1.21 (1.07-1.36); per patient, per year
Exacerbations moderate, mean rate [95% CI] ([4]; 52 weeks): 1.04 (0.92-1.18); per patient, per year
Exacerbations severe, mean rate [95% CI] ([4]; 52 weeks): 0.14 (0.10-0.20); per patient, per year
Exacerbations treated with systemic corticosteroids, antibiotics, or both, mean rate [95% CI] ([4]; 52 weeks): 1.17 (1.04-1.31); per patient, per year
Change in postbronchodillator FEV1/FVC ([4]; 52 weeks, mean): 0.552%
Change in prebronchodillator FEV1/FVC ([4]; 52 weeks, mean): 0.200%
Change in postbronchodillator FEF25-75 ([4]; 52 weeks, mean (SE)): 21 (5); n = 724 mL/s
Change in postbronchodillator FEV1 ([4]; 52 weeks, mean (SE)): 44 (7); n = 724 mL
Change in postbronchodillator FVC ([4]; 52 weeks, mean (SE)): 58 (13); mL
Change in postbronchodillator PEF ([4]; 52 weeks, mean (SE)): 1.93 (1.49); L/min
Change in prebronchodillator FEF25-75 ([4]; 52 weeks, mean (SE)): 15 (5); n = 730 mL/s
Change in prebronchodillator FEV1 ([4]; 52 weeks, mean (SE)): 33 (7); n = 730 mL
Change in prebronchodillator FVC ([4]; 52 weeks, mean (SE)): 60 (14); mL
Change in prebronchodillator PEF ([4]; 52 weeks, mean (SE)): 0.75 (1.45); L/min
Adverse event Influenza, difference ([4]; Roflumilast vs Placebo): −0.99% (−2.51 to 0.53)
Adverse event Upper respiratory tract infection, difference ([4]; Roflumilast vs Placebo): −0.57% (−2.75 to 1.62)
Change in C-reactive protein from baseline to last postrandomisation visit, difference ([4]; Roflumilast vs Placebo): Difference 1.1 mg/L
Change in postbronchodillator FEF25-75, difference ([4]; Roflumilast vs Placebo): Difference 29 (18 mL/s
Change in postbronchodillator FEV1, difference ([4]; Roflumilast vs Placebo): Difference 61 (44 mL
Change in postbronchodillator FEV1/FVC, difference ([4]; Roflumilast vs Placebo): Difference 0.668%
Change in postbronchodillator FVC, difference ([4]; Roflumilast vs Placebo): Difference 103 mL
Change in postbronchodillator PEF, difference ([4]; Roflumilast vs Placebo): Difference 5.07 L/min
Change in prebronchodillator FEF25-75, difference ([4]; Roflumilast vs Placebo): Difference 25 (13 mL/s
Change in prebronchodillator FEV1, difference ([4]; Roflumilast vs Placebo): Difference 58 (41 mL
Change in prebronchodillator FEV1/FVC, difference ([4]; Roflumilast vs Placebo): Difference 0.510%
Change in prebronchodillator FVC, difference ([4]; Roflumilast vs Placebo): Difference 108 mL
Change in prebronchodillator PEF, difference ([4]; Roflumilast vs Placebo): Difference 3.85 L/min
EQ-5D total score, difference ([4]; Roflumilast vs Placebo): Difference 0.0106
TDI focal score, difference ([4]; Roflumilast vs Placebo): Difference 0.3
Change in prebronchodillator FVC, difference ([4]; Roflumilast vs Placebo, listed as roflumilast): 108 mL
EQ-5D total score ([4]; mean): 0.0100
TDI focal score ([4]; mean (SE)): 0.7 (0.1);
Adverse event Influenza, patients ([4]; n = 778): 12 (2%) number (%)
Semen parameters or reproductive hormones [5]: no effects
Symptoms observed at an increased rate [6]: headache, gastrointestinal disorders, dizziness, palpitations, lightheadedness, clamminess and arterial hypotension
Bronchial ciliary activity [7]: stimulated
Cmax (clinical): 8.8 ng/mL
clearance (clinical; iv): ~160 mL/min
half-life (clinical; po): ~1020 min
bioavailability (clinical; po, 500 ug): ~80%
Absorption or pharmacokinetics on co-administration with an antacid [8]: did not alter
Increase in the total PDE4 inhibition with strong CYP 1A2 inhibitors, such as fluvoxamine [8]: 20-60%
Interactions with inhaled salbutamol, formoterol, budesonide, oral theophylline, montelukast, digoxin, warfarin, sildenafil, midazolam and an oral contraceptive [8]: No clinically relevant interactions
Reduction in total PDE4 inhibitory activity with rifampicin [8]: about 60%
Total PDE4 inhibitory activity with CYP 3A4 inhibitors (erythromycin and ketoconazole) [8]: did not result in increases
Total PDE4 inhibitory activity with fluvoxamine, enoxacin and cimetidine [8]: resulted in increases
Infiltration of leukocytes, in particular neutrophils, into the lungs (experimental animals): inhibited
fraction unbound (Plasma protein binding): ~0.01
Immunotoxic, skin sensitizing or phototoxic potential [9]: no evidence
Frequency of exacerbations [10]: did not significantly reduce
Delay of tmax by food intake ([11]; human): one
Plasma AUC ([11]; human): 28 ugxh/L
Radioactivity recovered in the urine ([11]; human): about 70%
Reduction of Cmax by food intake ([11]; human): approximately 40%
Time of maximum plasma concentrations after dosing, range ([11]; human): 0.5 to 2 h
Time to steady state plasma concentrations ([11]; human): approximately 4 days
Effect of food intake on total PDE4 inhibitory activity [11]: does not affect
Time of maximum plasma concentrations after dosing [11]: approximately one
Adverse event Upper respiratory tract infection, patients ([12]; human, 52 weeks): 33 (4%) number (%)
Occurrence of rhythm disturbances vs placebo [12]: no difference
